These results are taken from ChEMBL document CHEMBL5137055, “Near-Infrared Fluorescent Probes as Imaging and Theranostic Modalities for Amyloid-Beta and Tau Aggregates in Alzheimer's Disease” (J Med Chem, 2022).

The nature of data set [1]: Binding affinity to amyloid beta (unknown origin) monomer. More on the design: species or system Homo sapiens.
Data set [2] can be described thus: Binding affinity to amyloid beta (unknown origin) aggregates. More on the design: species or system Homo sapiens.
The target in data set [3] is T1, Amyloid-beta precursor protein (Homo sapiens, UniProt P05067). Briefly: Binding affinity to amyloid beta (1 to 42) (unknown origin) aggregates.
T1 sequence (P05067 whole entry): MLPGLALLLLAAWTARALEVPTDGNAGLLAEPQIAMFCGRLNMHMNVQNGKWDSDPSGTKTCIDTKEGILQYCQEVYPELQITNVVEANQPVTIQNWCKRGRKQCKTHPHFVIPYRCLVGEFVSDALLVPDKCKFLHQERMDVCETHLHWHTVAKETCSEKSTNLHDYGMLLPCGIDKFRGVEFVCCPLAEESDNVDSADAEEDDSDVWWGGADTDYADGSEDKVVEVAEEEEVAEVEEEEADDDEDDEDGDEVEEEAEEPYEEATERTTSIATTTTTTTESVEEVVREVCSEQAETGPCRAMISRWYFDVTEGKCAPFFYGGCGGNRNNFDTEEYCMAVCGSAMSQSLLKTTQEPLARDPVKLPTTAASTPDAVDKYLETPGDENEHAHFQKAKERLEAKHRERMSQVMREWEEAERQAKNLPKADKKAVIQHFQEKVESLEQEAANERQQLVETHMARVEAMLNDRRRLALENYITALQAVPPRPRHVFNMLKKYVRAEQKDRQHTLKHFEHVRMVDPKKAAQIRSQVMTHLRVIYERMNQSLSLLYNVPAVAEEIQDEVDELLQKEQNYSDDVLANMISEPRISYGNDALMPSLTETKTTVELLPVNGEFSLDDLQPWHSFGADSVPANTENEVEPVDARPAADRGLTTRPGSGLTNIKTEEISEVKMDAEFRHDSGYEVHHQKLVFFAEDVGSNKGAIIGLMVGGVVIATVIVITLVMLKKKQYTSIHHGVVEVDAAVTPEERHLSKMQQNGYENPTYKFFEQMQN
Data set [4] is described as follows: Binding affinity to tau protein (unknown origin). On the set-up: species or system Homo sapiens.
The nature of data set [5]: Binding affinity to amyloid beta (unknown origin). On the set-up: species or system Homo sapiens.
The target of data set [6] is T1, Amyloid-beta precursor protein. Briefly: Binding affinity to amyloid beta (1 to 40) (unknown origin) fibrils.
For data set [7] the target is unchanged. Put plainly: Binding affinity to amyloid beta (1 to 42) (unknown origin) fibrils.
For data set [8] the target is unchanged. Briefly: Binding affinity to amyloid beta (1 to 40) (unknown origin) monomer.
The target is the same in data set [9]. Briefly: Binding affinity to amyloid beta (1 to 42) (unknown origin) monomer.
Data set [10] is described as follows: Lipophilicity, logP of compound. The format is physicochemical. The note with it: octanol/water.

SMILES strings stand for the structures. pIC50, pKd, pKi: −log10 of the molar value.

As for `CC1=[N+]2C(=C(/C=C/c3ccc(N(C)C)cc3)c3ccc(C)n3[B-]2(F)F)C=C1`, the pKd in [1] was 6.49.
Same read-out and setting: as for `Cc1cc(/C=C/c2ccc(-c3ccc(N(C)C)cc3)s2)n2c1C=C1C=CC=[N+]1[B-]2(F)F`, the figure is 7.57.
As for `CC(=C(C#N)C#N)c1ccc2cc(N(C)C)ccc2c1`, the negative logarithm of the Ki (pKi) in [2] was 8.00.
As for `CN(C)c1ccc(/C=C/C=C/C=C(C#N)C#N)cc1`, in [3], the negative logarithm of the Kd (pKd) was 7.57 and the pKi is 7.43.
Consider `Cc1cc(/C=C/C=C/c2ccc(N(C)C)cc2)n2c1C=C1C=CC=[N+]1[B-]2(F)F`, for which the results for the negative logarithm of the Kd (pKd) in data set [4] and in [2] were 8.54 and 6.49, respectively.
As for `CN(C)c1ccc(/C=C/C=C/C=C2C(=O)CC(C)(C)CC2=O)cc1`, the negative logarithm of the Ki (pKi) in data set [3] was 6.19.
In the case of `CN(C)c1ccc2cc3c(cc2c1)OCC(C=C(C#N)C#N)=C3`, in [5], the negative-log Kd (pKd) is 7.35.
In turn, `C[N+]1=C(/C=C/c2ccc(N3CCCC3)cc2)C(C)(C)c2ccccc21` had a pKd in data set [6] of 5.08. In data set [4], this molecule had a negative logarithm of the IC50 (pIC50) of 8.29.
Take `CC[n+]1c(/C=C/C=C/c2ccc(N(C)C)cc2)sc2ccccc21`: the negative logarithm of the Kd (pKd) is 5.91 in data set [6] and 6.90 in [4].
`Cc1cc(/C=C/c2ccc(N(C)C)s2)n2c1C=C1C=CC=[N+]1[B-]2(F)F` gave a pKd in data set [1] of 7.26.
Molecule `C(=C\c1cc(/C=C/c2ccc(N3CCCC3)cc2)ncn1)/c1ccc(N2CCCC2)cc1` had a pKd in data set [4] of 7.28. Moreover, in data set [5], the pIC50 was 8.70.
For `COCCOCCn1c2ccccc2c2cc(/C=C/c3cc[n+](C)c4ccccc34)ccc21`, the pKd in [6] was 4.88; in data set [7], 4.94; in data set [8] it was 4.02; in data set [9] it was 4.40.
In turn, `CN(C)c1ncc(/C=C/C=C/C=C/C=C(C#N)C#N)cn1` had a negative logarithm of the Ki (pKi) in data set [5] of 6.01.
Turning to `N#CC(C#N)=Cc1ccc(-c2ccc(-c3ccc(O)cc3)s2)s1`, in data set [5], the negative logarithm of the Kd (pKd) is 7.26 and the negative-log Ki (pKi) was 8.00.
Turning to `Cc1ccc2c(sc(-c3ccc4c(c3)sc(-c3ccc(N(C)C)cc3)[n+]4C)[n+]2C)c1S(=O)(=O)O`, in data set [4], the negative logarithm of the Kd (pKd) was 5.72.
With `O=C(O)c1cc(/N=N/c2ccc(-c3ccc(/N=N/c4ccc(O)c(C(=O)O)c4)cc3)cc2)ccc1O` [CHRYSAMINE G], the pKi in data set [5] was 6.43.
In [3], `CCN1/C(=C/C=C2\CCCC(/C=C(/C#N)C(=O)C(C)(C)C)=C2Cl)C(C)(C)c2ccccc21` had a negative logarithm of the Kd (pKd) of 6.35.
`CC1=CC(C)=[N+]2C1=Cc1ccc(/C=C/c3ccc(-c4ccc([125I])cc4)s3)n1[B-]2(F)F`: the pKi in data set [3] is 6.97.
For `COCCOCCn1c2ccccc2c2cc(/C=C/c3cc[n+](CCO)c4ccccc34)ccc21`, in data set [6], the negative logarithm of the Kd (pKd) was 4.04.
`CN(C)c1ccc2nc(/C=C/c3ccc(C=C(C#N)C#N)cc3)sc2c1`: the negative logarithm of the Kd (pKd) in data set [7] is 6.96.
For `Cc1cc(/C=C/c2ccc(N(C)C)o2)n2c1C=C1C=CC=[N+]1[B-]2(F)F`, the negative logarithm of the Kd (pKd) in data set [1] was 6.83.
`CN(C)c1ccc(-c2ccc(/C=C/C3=CC(=C(C#N)C#N)c4ccccc4N3CCCS(=O)(=O)O)s2)cc1` showed a pKd in data set [5] of 6.77.
As to `Cc1cc(/C=C/c2ccc(N(C)C)cc2)n2c1C=C1C=CC=[N+]1[B-]2(F)F`, the pKd is 7.36 in data set [4] and 6.72 in [1].
In the case of `CCN(CC)c1ccc(/C=C/C2=CC(/C=C/c3ccc(N(C)C)cc3)=[O+][B-](F)(F)O2)cn1`, the pKd in data set [8] was 6.98; in [9] it was 7.34. Also, the logP in data set [10] was 1.94.
Molecule `COCCOCCn1c2ccccc2c2cc(/C=C/c3cc[n+](CCO)cc3)ccc21` gave a pKd in data set [6] of 3.34.
Same read-out and setting: as for `COCCOCCn1c2ccccc2c2cc(/C=C/c3cc[n+](C)cc3)ccc21`, the figure is 3.71.
As to `CN(C)c1ccc(/C=C/C=C/C=C/C=C(C#N)C#N)cn1`, the negative logarithm of the Ki (pKi) in [5] was 7.03.
In turn, `COCCOCCOCCOC(=O)/C(C#N)=C/c1ccc(N2CCCCC2)cc1` gave a negative logarithm of the Kd (pKd) in data set [2] of 4.71.
In [1], `COc1ccc(/C=C/C2=[N+]3C(=C(/C=C/c4ccc(N(C)C)cc4)c4ccc(/C=C/c5ccc(OC)cc5)n4[B-]3(F)F)C=C2)cc1` showed a pKd of 6.49.
The molecule `CNc1ccc(-c2nc3ccc(O)cc3s2)cc1[18F]` [FLUTEMETAMOL F 18] gave a pKd in [5] of 8.17.
As to `COc1cc(N(C)C)cc(OC)c1/C=C/C(=O)/C=C(O)/C=C/c1c(OC)cc(N(C)C)cc1OC`, in data set [4], the pIC50 was 6.11.
On to `COc1cc(N(C)C)cc(OC)c1/C=C/C=C/C=C/C(C#N)C(=O)OCc1ccco1` (stereo not given), for which the negative-log Kd (pKd) was 5.99 in data set [4] and 5.82 in data set [5].
The corresponding values for `CN(C)c1ccc(/C=C/c2cnc3ccccc3n2)s1` are 6.89 and 7.60.
In data set [1], `COCCOCCOCC1=C2C(C)=CC(/C=C/c3ccc(N(C)C)cc3)=[N+]2[B-](F)(F)n2c(/C=C/c3ccc(N(C)C)cc3)cc(C)c21` gave a pKd of 7.01.
With `CC(C)CC1=CC(/C=C/C=C/c2ccc(N(C)C)cc2)=[O+][B-](F)(F)O1`, the pKd in [4] is 4.30; in [5], 5.85.
With `C[n+]1ccc(/C=C/c2ccc(N(c3ccccc3)c3ccccc3)cc2)c2ccccc21`, the pKd was 4.84 in data set [6], 4.76 in data set [7], 4.59 in data set [8] and 4.50 in [9].
The molecule `CN(C)c1ccc2nc(C=C(C#N)C#N)sc2c1` gave a pKd in data set [7] of 6.92.
In data set [4], `CN(C)c1ccc(/C=C/c2cc(/C=C/c3ccc(N(C)C)cc3)ncn2)cc1` had a pKd of 7.27. The molecule also had a pIC50 in data set [5] of 8.40.
In the case of `COCCOCCOCC1=C2C(C)=CC(C)=[N+]2[B-](F)(F)n2c(/C=C/c3ccc(N(C)C)cc3)cc(C)c21`, in data set [1], the pKd was 7.31.
For the molecule `CN(C)c1ccc(/C=C/C=C/C=C2C(=O)OC(C)(C)OC2=O)cc1`, in data set [3], the pKi was 6.45.
For the molecule `COCCOCCOCCOC(=O)/C(C#N)=C/c1ccc(-c2ccc3cc(N4CCCCC4)ccc3c2)s1`, the pKd in [2] was 6.28.
For `CN(C)c1ncc(/C=C/c2nc3cc(OCC[18F])ccc3[se]2)cn1`, in data set [5], the negative logarithm of the Kd (pKd) is 8.77. This molecule had a logP in data set [10] of 1.28.
With `COCCOCCOCCOC(=O)/C(C#N)=C/c1ccc(-c2ccc3cc(N4CCCCC4)ccc3c2)o1`, the pKd in data set [2] was 6.44.
Consider `Cc1cc(/C=C/c2ccc3cc(N(C)C)ccc3c2)n2c1C=C1C=CC=[N+]1[B-]2(F)F`, for which the figures for the pKd in data set [4] and in data set [2] were 8.92 and 6.79, respectively.
For the molecule `CCCN(CCC)c1ccc(/C=C/c2cc[n+](OCC)c3ccccc23)cc1`, the pKd is 5.95 in data set [6], 5.50 in data set [7], 5.21 in data set [8] and 4.88 in [9].
In data set [1], `COc1ccc(/C=C/c2ccc3n2[B-](F)(F)[N+]2=C(C)C=CC2=C3/C=C/c2ccc(N(C)C)cc2)cc1` showed a pKd of 6.64.
In data set [6], `Cc1ccc2nc(-c3ccc(N(C)C)cc3)sc2c1` gave a pKi of 6.84.
Molecule `COCCOCCOCCOC(=O)/C(C#N)=C/c1ccc(-c2ccc3cc(N4CCCCC4)ccc3c2)n1C` showed a negative-log Kd (pKd) in data set [2] of 5.64.
As to `CCO[n+]1ccc(/C=C/c2ccc(N(C)C)cc2)c2ccccc21`, the pKd in data set [6] is 5.37; in data set [7], 5.11; in [8] it was 4.89; in [9], 4.75.
In data set [2], `CC(=C(C#N)C#N)c1ccc2cc(N(C)CCF)ccc2c1` gave a pKi of 9.70.
In the case of `Cc1cc(/C=C/c2ccc(-c3ccc(N(C)C)cc3)o2)n2c1C=C1C=CC=[N+]1[B-]2(F)F`, the negative logarithm of the Kd (pKd) in data set [1] is 7.74.
In data set [5], `COc1cc(/C=C/C(O)=C/C(=O)/C=C/c2ccc(OCCCF)c(OC)c2)ccc1O` showed a pKi of 10.15.
Consider `CN(C)c1ccc(/C=C/C=C/C=C/C=C(C#N)C#N)cc1`, for which, in data set [5], the negative logarithm of the Ki (pKi) is 7.85.
